# Assay results as given in ChEMBL document CHEMBL1159296, “A Revised Structure for Rhinacanthone” (1995).
# Tested on: Pyricularia oryzae
# Assay: Antifungal activity against Pyricularia oryzae assessed as inhibition of spore germination at 10 ppm
# Format: functional
structure (smiles),measurement,value
CC1(C)COC2=C(C1)C(=O)C(=O)c1ccccc12 [RHINACANTHONE],inhibition at 10 ppm,100%
